Measurements from US20080306124A1, “Polycyclic Oxadiazoles or I Soxazoles and Their Use as Sip Receptor Ligands” (priority 2005, published 2008).

biological target: T1, S1P1 (EDG-1) receptor (Homo sapiens, UniProt P21453); assay: S1P1 (EDG-1) GTP [γ-35S] binding assay, membranes from CHO cells; type: biochemical; details: membranes of CHO cells expressing human EDG-1
T1 construct: expressed in transfected cells
Experimental: A. In vitro: GPCR Activation Assay Measuring GTP [γ-^35S] Binding to Membranes Prepared from CHO Cells Expressing Human EDG Receptors
S1P1 (EDG-1) GTP [γ-^35S] binding assay: Homogenized membranes are prepared from CHO cell clones stably expressing a human EDG-1 N-terminal c-myc tag. Cells are grown in suspension in two 850 cm^2 roller bottles for three or fours days before harvesting. The cells are centrifuged down, washed once with cold PBS, and resuspended in ≦20 ml of Buffer A (20 mM HEPES, pH 7.4, […], EDTA-free complete protease inhibitor cocktail [1 tablet/25 ml]). The cell suspension is homogenized on ice, using a Polytron homogenizer at 30000 rpm at three intervals of 15 seconds each. The homogenate is first centrifuged at 2000 rpm on a tabletop low speed centrifuge for 10 minutes. The supernatant, after passing through a cell strainer, is then re-centrifuged at 50,000×g for 25 minutes at 4° C. The pellet is resuspended into buffer B (15% glycerol, 20 mM HEPES, pH 7.4, 0.1 mM EDTA, EDTA-free complete protease inhibitor cocktail [1 tablet/10 ml]). Protein concentration of the preparation is determined using the BCA Protein Assay kit (Pierce) using BSA as standard. The membranes are aliquoted and kept frozen at −80° C.
Solutions of test compounds ranging from 10 mM to 0.01 nM are prepared in DMSO. S1P is diluted in 4% BSA solution as positive controls. The desired amount of membrane preparation is diluted with ice-cold assay buffer (20 mM HEPES, pH 7.4, 100 mM NaCl, 10 mM MgCl2, 0.1% Fatty acid-free BSA, 5 μM GDP) and vortexed well. 2 μl or less of compound is distributed into each well of a round-bottom 96-well polystyrene assay plate, followed by addition of 100 µl of diluted membranes ([…]/well) and kept on ice until the addition of hot GTPγS. [^35S]-GTPγS is diluted 1:1000 (v/v) with cold assay buffer and 100 μl is added into each well. The reaction is carried out at room temperature for 90 minutes before the membranes are harvested onto Perkin-Elmer Unifilter® GF/B-96 filter plate using a Packard Filtermate Harvester. After several washes with wash buffer (20 mM HEPES, pH 7.4, 100 mM NaCl, 10 mM MgCl2), and a rinse with 95% ethanol, the filter is dried in a 37° C. oven for 30 minutes. MicroScint-20 is added and the plate sealed for scintillation counting on TopCount. EC50 values are obtained by fitting the GTP [γ-^35S] binding curves (raw data) with the dose response curve-fitting tool of GraphPad Prism. Six or twelve different concentrations are used to generate a concentration response curve (using three data points per concentration).

T1 sequence (P21453 whole entry): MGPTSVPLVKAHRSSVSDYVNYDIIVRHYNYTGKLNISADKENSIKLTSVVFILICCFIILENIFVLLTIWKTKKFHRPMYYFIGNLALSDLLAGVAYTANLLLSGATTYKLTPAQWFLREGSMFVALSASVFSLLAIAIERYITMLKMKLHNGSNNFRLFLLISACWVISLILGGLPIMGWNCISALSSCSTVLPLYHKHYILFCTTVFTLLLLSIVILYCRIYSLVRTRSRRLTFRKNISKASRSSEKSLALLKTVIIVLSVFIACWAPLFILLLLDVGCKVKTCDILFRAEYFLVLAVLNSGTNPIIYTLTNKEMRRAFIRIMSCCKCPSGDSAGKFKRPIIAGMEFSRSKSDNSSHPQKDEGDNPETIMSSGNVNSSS

Structure (SMILES)	EC50
CCc1ccccc1-c1ccc(-c2nc(-c3ccc(S(=O)(=O)NCC(=O)O)cc3)no2)cc1C(F)(F)F [Example 45]	< 1 nM
O=C(O)CCNS(=O)(=O)c1ccc(-c2noc(-c3ccc(Oc4cccc(F)c4)c(C(F)(F)F)c3)n2)cc1 [Example 54]	< 1 nM
NS(=O)(=O)c1ccc(-c2noc(-c3ccc(OC4CCCC4)c(C(F)(F)F)c3)n2)cc1 [Example 145]	< 1 nM

Further lines, results first:

EC50	Structure (SMILES)
< 1 nM	CCc1cc(-c2noc(-c3ccc(-c4ccccc4F)c(C(F)(F)F)c3)n2)ccc1S(N)(=O)=O [Example 194, 2-Ethyl-4-[5-(2′-fluoro-2-trifluoromethyl-biphenyl-4-yl)-[1,2,4]oxadiazol-3-yl]-benzenesulfonamide]
< 1 nM	CCc1cc(-c2noc(-c3ccc(C4CCCCC4)c(C(F)(F)F)c3)n2)ccc1S(N)(=O)=O [Example 196, 4-[5-(4-Cyclohexyl-3-trifluoromethyl-phenyl)-[1,2,4]oxadiazol-3-yl]-2-ethyl-benzenesulfonamide]
